Reference: ChEMBL document CHEMBL1201862, “PubChem BioAssay data set” (2004)
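Following 48 hours of exposure in 96-well plates, responses at five concentrations were used to interpolate endpoints linearly. GI50 is the concentration that inhibits growth by half.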 Active and inactive are the calls of the source. Cut-off read from the data, not from the text of the source: active = GI50 up to about 1.1 µM and inactive = higher.

Tests used:
Assay in all cases: inhibition of tumour cell growth, NCI panel, 48 h
A549 = test system: A549
COLO 205 = test system: COLO 205
HCT-15 = test system: HCT-15
HL-60 = test system: HL-60
HT-29 = test system: HT-29
Hs-578T = test system: Hs-578T
LOX IMVI = test system: LOX IMVI
MDA-MB-435 = test system: MDA-MB-435
NCI-H23 = test system: NCI-H23
NCI-H460 = test system: NCI-H460
PC-3 = test system: PC-3
SF-539 = test system: SF-539
SK-MEL-28 = test system: SK-MEL-28
SK-OV-3 = test system: SK-OV-3
SN12C = test system: SN12C
SR = test system: SR
SW-620 = test system: SW-620
T47D = test system: T47D
UO-31 = test system: UO-31

| Compound | GI50 (A549) | GI50 (COLO 205) | GI50 (HCT-15) [µM] | GI50 (HL-60) | GI50 (HT-29) | GI50 (Hs-578T) | GI50 (LOX IMVI) | GI50 (MDA-MB-435) | GI50 (NCI-H23) | GI50 (NCI-H460) | GI50 (PC-3) | GI50 (SF-539) | GI50 (SK-MEL-28) | GI50 (SK-OV-3) | GI50 (SN12C) | GI50 (SR) | GI50 (SW-620) | GI50 (T47D) | GI50 (UO-31) |
| --- | --- | --- | --- | --- | --- | --- | --- | --- | --- | --- | --- | --- | --- | --- | --- | --- | --- | --- | --- |
| COc1ccc(OC)c(N(CN2C(=O)CCC2C(=O)O)C(C)=O)c1 (stereo unspecified) | > 100 µM (inactive) | > 100 µM (inactive) | > 100 | > 100 µM (inactive) | > 100 µM (inactive) | > 100 µM (inactive) | > 100 µM (inactive) | > 100 µM (inactive) | > 100 µM (inactive) | > 10 µM (inactive) | > 100 µM (inactive) | > 100 µM (inactive) | > 100 µM (inactive) | > 100 µM (inactive) | > 100 µM (inactive) | > 100 µM (inactive) | > 100 µM (inactive) | > 100 µM (inactive) | > 100 µM (inactive) |
| O=C(O)c1ccc(Nc2nc3ccc(C(F)(F)F)cc3nc2C(=O)O)cc1 | > 100 µM (inactive) | > 100 µM (inactive) | > 100 | > 100 µM (inactive) | > 100 µM (inactive) | > 100 µM (inactive) | > 100 µM (inactive) | > 100 µM (inactive) | > 100 µM (inactive) | > 100 µM (inactive) | > 100 µM (inactive) | > 100 µM (inactive) | > 100 µM (inactive) | > 100 µM (inactive) | > 100 µM (inactive) | > 100 µM (inactive) | > 100 µM (inactive) | > 100 µM (inactive) | > 100 µM (inactive) |
| O=S1(=O)c2cnccc2N=C(NCc2cccc3ccccc23)N1c1ccccc1 | > 57.7 µM (inactive) | > 85.7 µM (inactive) | 50.1 | 1.87 µM (inactive) | > 100 µM (inactive) | > 73.3 µM (inactive) | > 96.8 µM (inactive) | > 100 µM (inactive) | 36.2 µM (inactive) | 60.8 µM (inactive) | 30 µM (inactive) | > 100 µM (inactive) | > 100 µM (inactive) | > 100 µM (inactive) | 27 µM (inactive) | > 100 µM (inactive) | > 100 µM (inactive) | 54.7 µM (inactive) | > 56.5 µM (inactive) |
| CC(=O)NN/C=N/C(C#N)=C(\N)C#N | > 100 µM (inactive) | > 100 µM (inactive) | > 100 | > 100 µM (inactive) | > 100 µM (inactive) | > 100 µM (inactive) | > 100 µM (inactive) | > 100 µM (inactive) | > 100 µM (inactive) | > 100 µM (inactive) | > 100 µM (inactive) | > 100 µM (inactive) | > 100 µM (inactive) | > 100 µM (inactive) | > 100 µM (inactive) | > 100 µM (inactive) | > 100 µM (inactive) | > 100 µM (inactive) | > 100 µM (inactive) |
